Each structure is given as a SMILES string. “And” between values parts separate entries of the source, which are not always exact repeats. Identical values can stand only once.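 All cell lines were grown in 96-well plates and treated with compound for 48 hours. Abbreviation: GI50, concentration required for 50% inhibition of growth. Definition used: TGI = concentration required for complete inhibition of growth.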

Test systems include SF-539 CNS; SK-OV-3 ovarian; NCI/ADR-RES ovarian; SK-MEL-28 melanoma; SN12C renal; HT29 colon; EKVX NSCLC; SNB-19 CNS; OVCAR-8 ovarian; RXF 393 renal.
Experiment in all cases: NCI tumour cell line growth inhibition, 48 h

As for `C=C(CCC(C(=O)O)C1CCC2(C)C3=C(CCC12C)C1(C)CCC(O)C(C)(C)C1CC3)C(C)C` (stereo unspecified), the TGI in the assay on SF-539 CNS was greater than 100 µM; in the assay on SK-OV-3 ovarian, greater than 100 µM; in the assay on NCI/ADR-RES ovarian, 70.5 µM; in the assay with SK-MEL-28 melanoma, greater than 100 µM; in the assay on SN12C renal it was greater than 100 µM; with HT29 colon, greater than 100 µM. Besides, the TGI in the assay on EKVX NSCLC is greater than 100 µM; with SNB-19 CNS, greater than 100 µM; in the assay on OVCAR-8 ovarian, 47.2 µM.
Regarding `CN1C(=O)[C@@]2(C=CC3(CC2)OCCO3)c2ccccc21`, the TGI with SK-OV-3 ovarian, in the assay with NCI/ADR-RES ovarian, with SK-MEL-28 melanoma, with SN12C renal, in the assay on HT29 colon and in the assay on EKVX NSCLC was greater than 50 µM throughout. For the same compound, the TGI in the assay on SNB-19 CNS, with OVCAR-8 ovarian and with RXF 393 renal was greater than 50 µM throughout.
As to `COc1ccc(CC2C(=O)NC(C)C(=O)N(C)C3Cc4ccc(cc4)Oc4cc(ccc4O)CC(C(=O)NC(C)C(=O)NC(C)C(=O)N2C)N(C)C3=O)cc1` (stereo unspecified), the GI50 in the assay with SF-539 CNS is less than 0.0001 µM; in the assay with NCI/ADR-RES ovarian, 15.2 µM; in the assay on SN12C renal, 0.208 µM; in the assay on HT29 colon, less than 0.0001 µM; with EKVX NSCLC, 0.00125 µM; with SNB-19 CNS it was less than 0.0001 µM. In the assay with OVCAR-8 ovarian, the GI50 was 0.00034 µM. Moreover, the TGI was 0.0219 µM and 0.0288 µM in the assay on SF-539 CNS; 78.6 µM in the assay with NCI/ADR-RES ovarian; 0.281 µM and 0.536 µM in the assay with SN12C renal; 0.0347 µM and 0.0161 µM and 0.152 µM in the assay on HT29 colon; 0.144 µM and 0.0424 µM in the assay on EKVX NSCLC; 0.144 µM and 0.0379 µM in the assay with OVCAR-8 ovarian. The TGI in the assay with RXF 393 renal stood at 0.0731 µM.
For the compound `CCOC(=O)C(Cc1c(-c2[nH]c3ccccc3c2CC(NC(=O)CNC(C)=O)C(=O)OCC)[nH]c2ccccc12)NC(=O)CNC(C)=O` (stereo unspecified), the TGI in the assay with SK-OV-3 ovarian, in the assay with SK-MEL-28 melanoma, in the assay on SN12C renal, in the assay on HT29 colon, in the assay on EKVX NSCLC and with SNB-19 CNS was greater than 100 µM each time.
`CCN(CC)c1ccc(C(=C2C=CC(=[N+](CC)CC)C=C2)c2ccccc2)cc1`: the TGI stood at 0.269 µM in the assay on SF-539 CNS; 0.0854 µM in the assay with SK-OV-3 ovarian; 0.351 µM in the assay on SK-MEL-28 melanoma; 0.0878 µM in the assay on SN12C renal; 0.581 µM in the assay on EKVX NSCLC; 0.179 µM in the assay with SNB-19 CNS. The TGI with RXF 393 renal is 0.0989 µM.
With `COC1(OC)/C(=C(\N)C=O)NC(C)(C)N1O`, the TGI with SF-539 CNS, with NCI/ADR-RES ovarian, in the assay on SK-MEL-28 melanoma, in the assay on SN12C renal, in the assay with HT29 colon and in the assay with EKVX NSCLC was greater than 100 µM throughout. The TGI in the assay with SNB-19 CNS, in the assay with OVCAR-8 ovarian and in the assay with RXF 393 renal was greater than 100 µM each time.
For the compound `COc1cc(/C=C2\C[C@H]3[C@@H]4CC=C5C[C@@H](N6CCCC6)CC[C@]5(C)[C@H]4CC[C@]3(C)[C@H]2OC(C)=O)cc(OC)c1OC`, the TGI in the assay with SK-OV-3 ovarian is 29.1 µM; with NCI/ADR-RES ovarian, 30.9 µM; with SK-MEL-28 melanoma it was 34.1 µM; with SN12C renal, 27.8 µM; in the assay on HT29 colon, 21.6 µM; in the assay on EKVX NSCLC it was 27.3 µM. Besides, the TGI in the assay with SNB-19 CNS stood at 34.2 µM; in the assay on OVCAR-8 ovarian, 28.7 µM; in the assay on RXF 393 renal it was 27 µM.
Regarding `CN(C)CCNC(=O)c1cccc2c(NC(CS)C(=O)O)c3ccccc3nc12` (stereo unspecified), the TGI is 18.1 µM in the assay on SF-539 CNS; 80.7 µM in the assay on SK-OV-3 ovarian; greater than 100 µM in the assay with NCI/ADR-RES ovarian; 35.7 µM in the assay with SK-MEL-28 melanoma; 24 µM with SN12C renal; 52.3 µM in the assay on HT29 colon. Further, the TGI was 39.3 µM with EKVX NSCLC, 50.9 µM in the assay with SNB-19 CNS and greater than 100 µM in the assay with OVCAR-8 ovarian.
On to `CCOc1cc(C=O)ccc1O`, for which the TGI with SF-539 CNS, in the assay with NCI/ADR-RES ovarian, with SK-MEL-28 melanoma, with SN12C renal, with HT29 colon and in the assay on EKVX NSCLC was greater than 100 µM throughout. Also, the TGI in the assay with SNB-19 CNS and in the assay on OVCAR-8 ovarian was greater than 100 µM each time.
For the compound `COc1ccc(S(=O)(=O)Nc2ccc(-c3csc(N4C(=O)/C(=C/C=C\c5ccccc5)N=C4c4ccccc4)n3)cc2)cc1Cl`, the TGI in the assay with SF-539 CNS was greater than 100 µM; in the assay with SK-OV-3 ovarian, greater than 100 µM; in the assay with NCI/ADR-RES ovarian, 73.8 µM; in the assay with SK-MEL-28 melanoma it was greater than 100 µM; with SN12C renal, greater than 100 µM; with HT29 colon, greater than 100 µM. The TGI with SNB-19 CNS is greater than 100 µM; with OVCAR-8 ovarian it was 88.4 µM; in the assay on RXF 393 renal it was 62.5 µM.
With `C=C1C(=O)O[C@H]2C(=O)[C@H](C)CCC[C@@](C)(O)/C=C\C[C@@]3(C)O[C@@H]3C[C@@H]12`, the TGI was 36.9 µM in the assay with SF-539 CNS; greater than 100 µM in the assay with SK-OV-3 ovarian; greater than 100 µM in the assay with NCI/ADR-RES ovarian; 31.3 µM in the assay on SN12C renal; 28.4 µM in the assay with HT29 colon; greater than 100 µM in the assay on SNB-19 CNS. In the assay on OVCAR-8 ovarian, this compound came in with a TGI of 48 µM.
Turning to `CSc1nc(Br)nc2c1ncn2C1CC(Oc2ccc(C)cc2)C(COc2ccc(C)cc2)O1` (stereo unspecified), the TGI with SF-539 CNS, in the assay with SK-OV-3 ovarian, with NCI/ADR-RES ovarian, in the assay with SK-MEL-28 melanoma, with SN12C renal and in the assay with HT29 colon was greater than 100 µM each time. Further, the results for the TGI with EKVX NSCLC, with SNB-19 CNS and in the assay on OVCAR-8 ovarian were greater than 100 µM, 73.8 µM and greater than 100 µM, respectively.
Turning to `C/C=C\C(CC(=O)O)CC(=O)NCCC1CN(S(=O)(=O)C(F)(F)F)c2ccccc21` (stereo unspecified), the TGI in the assay on SK-OV-3 ovarian, with NCI/ADR-RES ovarian, in the assay on SK-MEL-28 melanoma, with HT29 colon, with EKVX NSCLC and in the assay with SNB-19 CNS was greater than 100 µM in each case. For the same compound, the TGI in the assay on OVCAR-8 ovarian and with RXF 393 renal was greater than 100 µM each time.
In the case of `OCc1ccccc1OC1OC(CO)C(O)C(O)C1O` (stereo unspecified), the TGI in the assay on SF-539 CNS, with SK-OV-3 ovarian, with NCI/ADR-RES ovarian, with SK-MEL-28 melanoma, in the assay with SN12C renal and in the assay with HT29 colon was greater than 100 µM each time. For the same compound, the TGI in the assay with EKVX NSCLC, with OVCAR-8 ovarian and with RXF 393 renal was greater than 100 µM each time.
Regarding `Cc1ccc(S(=O)(=O)NC(=O)NS(=O)(=O)O)cc1`, the TGI in the assay on SF-539 CNS, in the assay with SK-OV-3 ovarian, in the assay with NCI/ADR-RES ovarian, with SK-MEL-28 melanoma, in the assay with SN12C renal and in the assay with HT29 colon was greater than 100 µM each time. Also, the TGI with SNB-19 CNS, in the assay with OVCAR-8 ovarian and in the assay with RXF 393 renal was greater than 100 µM in each case.

The values above are taken from PubChem BioAssay (NCI).
